Test results from patent US11510980B2, “Brartemicin analogues” (VICTORIA LINK LTD, priority 2017, dated 2022).

Test system: wild-type GM-CSF BMDMs
Assay: Cytokine/chemokine production by wild-type GM-CSF BMDMs on ligand-coated plates
Assay type: cell-based, C57BL/6 mice
Conditions: wild-type BMDMs, coated plates 0.1 or 1 nmol/well, 24 hours, ELISA
Description: Preparation of ligand-coated plates: Brartemicin analogues 9a-9i, TDM (Carbosynth, Sigma Aldrich), and TDB^14 were dissolved in CHCl3:MeOH (2:1, 1 mM), diluted in isopropanol ([…]) and added to 96-well plates (20 μL/well). The solvents were evaporated and the coated plates were used immediately.
Murine bone-marrow derived macrophages: For the preparation of murine bone-marrow derived macrophages, bone marrow cells were collected from the tibias and femurs of C57BL/6 mice and cultured (250,000 cells/mL) in complete RPMI media [RPMI-1640 (Gibco) with 10% heat inactivated fetal bovine serum (Gibco), 100 unit/mL penicillin-streptomycin (Gibco) and 2 mM Glutamax (Gibco)] supplemented with 50 ng/mL GM-CSF (clone X63/GM-CSF murine cells). Cells were incubated at 37° C. (5% CO2) for 8 days (cells fed by replacing half the media on days 3 and 6). On day 8, all media was removed and the cells were washed with Dulbecco's Phosphate-Buffered Saline (DPBS, Gibco) to remove any loosely-adherent cells. The BMDMs were harvested with StemPro Acutase (1 mL/well, 15 minutes at room temperature, Gibco) and seeded onto a pre-coated 96-well plate. The supernatant was collected and analysed for cytokine/chemokine production after 24 hours.
Cytokine analysis: IL-1β, IFN-γ, IL-6, TNF-α (BD Biosciences), IL-17, and MIP-2 (R&D) levels were determined via sandwich ELISA according to the manufacturer's instructions.
First, the ability of the compounds to activate GM-CSF BMDMs was determined by monitoring the secretion of the inflammatory cytokines TNF, IL-6, and IL-1β and the chemokine, MIP-2, in a ligand-coated plate assay (FIG. 2).
To gain insight into the capacity of the 2G-series of brartemicin analogues to induce an inflammatory immune response, the analogues were then screened for their ability to activate WT and Mincle^−/− BMDMs, with cellular activation being determined by the measurement of IL-1B using ELISA (FIG. 6).

6,6′-Di-O-(2-hydroxy-4-octabenzyloxybenzoyl)-α,α′-D-trehalose [9a]
significant production: IL-1β production | IL-6 production | MIP-2 production | TNF production
